Article PMC13086438 (PLOS Neglected Tropical Diseases, 2026)

Biological target: T1, recombinant human sphingosine kinase 1 (rhSphK1) (Homo sapiens, UniProt Q9NYA1)
T1 construct: gene SPHK1; full-length (1155 bp CDS), 6×His tag, ~50 kDa, E. coli
Assay: Microscale thermophoresis (SphK2 inhibitor used as control)
Type: binding

T1 sequence (Q9NYA1 whole entry): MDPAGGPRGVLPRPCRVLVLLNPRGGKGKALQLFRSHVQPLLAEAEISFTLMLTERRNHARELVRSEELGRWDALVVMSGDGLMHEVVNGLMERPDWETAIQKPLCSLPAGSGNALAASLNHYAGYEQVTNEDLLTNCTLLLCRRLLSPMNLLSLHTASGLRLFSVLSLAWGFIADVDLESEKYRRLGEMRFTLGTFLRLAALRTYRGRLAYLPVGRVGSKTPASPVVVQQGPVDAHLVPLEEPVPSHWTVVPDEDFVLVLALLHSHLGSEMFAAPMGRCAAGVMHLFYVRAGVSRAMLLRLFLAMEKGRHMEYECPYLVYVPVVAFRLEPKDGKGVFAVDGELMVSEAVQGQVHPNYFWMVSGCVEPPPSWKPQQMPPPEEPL

## O=C(NCc1ccncc1)C12CC3CC(C1)CC(c1ccc(Cl)cc1)(C3)C2 [ABC294640]
  Kd: 70.6 µM
